# Source: patent US10766940B2, “Brain penetrant amylin receptor based peptides for Alzheimer's disease” (The Governors of the University of Alberta, priority 2016, dated 2020)
# Residues, ends and D or L forms follow the SMILES beside them. No end group written: not given here.
# Key:
# Assay type in all cases: cell-based
# [1] = molecular target: T1, AMY3 receptor (HEK293-AMY3 cells) (Homo sapiens, UniProt O60896+P30988); assay: Flow cytometry binding and uptake of Cy5 labeled peptides in AMY3-HEK cells; settings: for flow cytometry binding to HEK293-AMY3 cells: 10 μM
# T1 construct: expressed in transfected cells; AMY3-293 / AMY3-HEK)
# T1 sequence (P30988 25-474): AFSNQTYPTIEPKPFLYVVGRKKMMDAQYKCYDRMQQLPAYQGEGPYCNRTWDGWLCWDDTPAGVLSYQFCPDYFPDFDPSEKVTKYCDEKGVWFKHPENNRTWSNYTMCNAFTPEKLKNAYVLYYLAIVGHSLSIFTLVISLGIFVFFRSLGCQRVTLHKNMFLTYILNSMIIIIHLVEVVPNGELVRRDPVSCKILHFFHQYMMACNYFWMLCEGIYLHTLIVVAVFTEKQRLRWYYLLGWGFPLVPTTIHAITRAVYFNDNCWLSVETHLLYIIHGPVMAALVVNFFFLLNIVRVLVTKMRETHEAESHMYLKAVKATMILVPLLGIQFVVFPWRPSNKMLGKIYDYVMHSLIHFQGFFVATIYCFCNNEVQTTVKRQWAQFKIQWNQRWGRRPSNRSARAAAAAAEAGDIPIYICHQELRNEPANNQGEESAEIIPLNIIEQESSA
# T1 sequence (O60896 24-148 partner): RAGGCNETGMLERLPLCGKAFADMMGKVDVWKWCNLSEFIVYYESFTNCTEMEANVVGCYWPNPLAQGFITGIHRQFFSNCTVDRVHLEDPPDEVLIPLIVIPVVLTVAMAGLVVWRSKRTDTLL
# Procedure: d) For flow cytometry studies, AMY3-293 cells were used to determine cell binding and uptake and binding of Cy5-AC253, and Cy5-cAC253 peptides. Cell were plated at a density of 1.5×10^5 cells/well and cultured overnight in 12-well plates at 37° C. Cy5 labelled peptides (5 μM) were added and incubated for 1 hour at 37° C. in serum free media. The culture media was discarded, and cell monolayers were washed with PBS containing 2 mM EDTA and 0.5% BSA adjusted to pH 7.4 at 37° C. Cells were washed again with cold buffer and incubated with 0.25% trypsin to remove cell surface-associated fluorophores. Cells were dispersed in FACS solution (10% FBS in PBS) and analyzed using a FACSCanto II flow cytometer (BD Biosciences, USA) selecting a detection window between 720 and 840 nm. Fluorescence histograms and dot plots were generated using the data were processed with FLOWJO software (Tree Star, Inc, USA). At least 10,000 gated events per sample were analyzed. The experiment was repeated with different peptide concentration ranging from 0.5-10 μM, and mean fluorescence intensity of peptides was extrapolated. To further study the cell uptake mechanism, cells were preincubated with cytochalasin D (cytoD, […]) for 30 minutes, and the experiment was repeated as above. To determine the energy dependent mechanism, cell uptake experiment was undertaken at 4° C., and for the competition experiment, cells was pre-incubated with amylin (30 μM) for 30 minutes, and the experiment was repeated.
# AMY1 = molecular target: T2, AMY1 (Homo sapiens, UniProt O60894+P30988); assay: Flow cytometry cell uptake, AMY1 cells; settings: 10 μM, 37° C., 60 min
# T2 construct: expressed in transfected cells
# T2 sequence (O60894 27-148 partner, one chain of several): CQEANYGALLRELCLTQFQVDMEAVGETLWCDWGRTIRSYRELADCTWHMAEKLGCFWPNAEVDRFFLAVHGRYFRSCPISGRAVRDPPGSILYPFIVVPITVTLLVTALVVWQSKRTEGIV
# [2] = test system: human neuroblastoma, SK-N-SH cells; assay: Aβ1-42 cytotoxicity (MTT) in SK-N-SH cells; settings: Aβ1-42 20 μM
# Procedure: (§1) f) To investigate the antagonistic activity of peptide fragments against Aβ cytotoxicity in vitro, (human fetal neurons) HFNs, human neuroblastoma, SK-N-SH cells and N2a mouse neuroblastoma cells were used. Cells were seeded to 5000 cells/well in a 96-well plate in MEM-10% FBS and DMEM/OptiMEM-5% FBS for overnight. Cells in culture media were preincubated for 8 h with or without AC253 or fragments R5, R14, R11, and followed by treatment with Aβ1-42 for 24 h. At the end of treatment, 20 μl of 5 mg/ml methylthiazolyldiphenyl-tetrazolium bromide (MTT) was added to each well, and incubated at 37° C. for 3 h. Medium was removed, 100 μl of MTT solvent (isopropanol with 4 mM HCl) added to each well, and the plates were incubated for 30 min at room temperature on a rotating shaker. Plates were analyzed on a microplate reader at a 562-nm wavelength.
# [3] = test system: human fetal neurons (HFNs); assay: Aβ1-42 cytotoxicity (MTT, live/dead) in human fetal neurons; settings: for block of Aβ1-42 triggered cell death, human fetal neuronal cells (MTT): Aβ1-42 20 μM
# Procedure: (§2) b) To investigate the antagonistic activity of peptides against Aβ cytotoxicity in vitro, HFNs and N2a cells were used. Cells were seeded to 5000 cells/well in a 96-well plate in MEM-10% FBS and DMEM/OptiMEM-5% FBS for overnight. […] At the end of treatment, 20 μl of 5 mg/ml methylthiazolyldiphenyl-tetrazolium bromide (MTT) was added to each well, and incubated at 37° C. for 3 hours. Medium was removed, 100 μl of MTT solvent (isopropanol with 4 mM HCl) added to each well, and the plates were incubated for 30 minutes at room temperature on a rotating shaker. Plates were analyzed on a microplate reader at a 562-nm wavelength. The Live/Dead assay kit was purchased from Invitrogen and assay followed the production instruction. The assayed cells were fixed with 4% paraformaldehyde in PBS and photo imaged with Axio Zeiss fluorescent microscopy. The dead cells were further counted using ImageJ software.
# as §1
# [4] = test system: N2a mouse neuroblastoma cells; assay: Aβ1-42 cytotoxicity (MTT) in N2a cells; settings: for block of Aβ1-42 triggered cell death, N2a (MTT): Aβ1-42 20 μM
# Procedure: as §2, §1
Compound,"flow cytometry binding to HEK293-AMY3 cells ([1]; 37° C., 60 min)",flow cytometry binding to AMY1 cells (AMY1),"block of Aβ1-42 triggered cell death, SK-N-SH (MTT) [2]","block of Aβ1-42 triggered cell death, human fetal neuronal cells (MTT) [3]","block of Aβ1-42 triggered cell death, N2a (MTT) [4]",mean fluorescence intensity at 4° C. ([1]; 4° C.),"mean fluorescence intensity, binding and uptake ([1]; Cy5 labeled peptide 5 μM, 60 min, 37° C.)",mean fluorescence intensity after pre-incubation with hAmylin ([1]; hAmylin (30 μM) pre-incubation 30 minutes),mean fluorescence intensity in the presence of cytoD ([1]; preincubation with cytochalasin D),"attenuation of Aβ1-42 induced cell death, HFNs ([3]; Aβ1-42 10 μM, peptide 10 μM pre-applied, MTT and live-dead assays)","attenuation of Aβ1-42 induced cell death, N2a ([4]; Aβ1-42 10 μM, peptide 10 μM pre-applied, MTT)"
CC(C)C[C@H](NC(=O)[C@H](CCC(=O)O)NC(=O)[C@H](CCC(N)=O)NC(=O)[C@@H](N)CO)C(=O)N[C@@H](Cc1c[nH]cn1)C(=O)N[C@@H](CCCNC(=N)N)C(=O)N[C@@H](CC(C)C)C(=O)N[C@@H](CCC(N)=O)C(=O)N[C@H](C(=O)N[C@@H](Cc1ccc(O)cc1)C(=O)N1CCC[C@H]1C(=O)N[C@@H](CCCNC(=N)N)C(N)=O)[C@@H](C)O [R5] (H-SQELHRLQTYPR-NH2; N-terminus assumed),selective and significant specific binding,selective and significant specific binding,block the effect of Aβ1-42,block the effect of Aβ1-42,block the effect of Aβ1-42,,,,,,
LGRLSQELHRLQTY (LGRLSQELHRLQTY-NH2) [R14],selective and significant specific binding,selective and significant specific binding,block the effect of Aβ1-42,block the effect of Aβ1-42,block the effect of Aβ1-42,,,,,,
CC(C)C[C@H](NC(=O)[C@H](CCCNC(=N)N)NC(=O)CNC(=O)[C@@H](N)CC(C)C)C(=O)N[C@@H](CO)C(=O)N[C@@H](CCC(N)=O)C(=O)N[C@@H](CCC(=O)O)C(=O)N[C@@H](CC(C)C)C(=O)N[C@@H](Cc1c[nH]cn1)C(=O)N[C@@H](CCCNC(=N)N)C(=O)N[C@@H](CC(C)C)C(=O)N[C@@H](CCC(N)=O)C(=O)N[C@H](C(=O)N[C@@H](Cc1ccc(O)cc1)C(=O)N1CCC[C@H]1C(=O)N[C@@H](CCCNC(=N)N)C(=O)N[C@H](C(=O)N[C@@H](CC(N)=O)C(=O)N[C@H](C(=O)NCC(=O)N[C@@H](CO)C(=O)N[C@@H](CC(N)=O)C(=O)N[C@H](C(=O)N[C@@H](Cc1ccc(O)cc1)C(N)=O)[C@@H](C)O)[C@@H](C)O)[C@@H](C)O)[C@@H](C)O [AC253],,,,,,400±75,1200,500±100,450±50,attenuated,attenuated
